The assay deals with T1, G1 APOL1 (Homo sapiens, UniProt O14791, I384M/S342G).
T1 construct: expressed in transfected cells
T1 sequence (O14791 28-398 S342G/I384M): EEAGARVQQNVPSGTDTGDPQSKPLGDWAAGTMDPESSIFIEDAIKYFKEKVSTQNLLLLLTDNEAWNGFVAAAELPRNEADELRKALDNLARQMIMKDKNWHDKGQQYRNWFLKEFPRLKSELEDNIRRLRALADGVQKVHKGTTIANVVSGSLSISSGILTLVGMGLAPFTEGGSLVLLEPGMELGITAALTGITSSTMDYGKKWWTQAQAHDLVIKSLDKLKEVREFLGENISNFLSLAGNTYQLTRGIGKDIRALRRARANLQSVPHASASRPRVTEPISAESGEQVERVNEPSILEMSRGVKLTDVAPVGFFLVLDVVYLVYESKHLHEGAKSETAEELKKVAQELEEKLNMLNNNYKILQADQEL
As to the kind of experiment: Acute APOL1 Thallium Assay with inducible stable clones of HEK 293 cells. Type of assay: cell-based. Particulars: HEK T-Rex tetracycline-inducible cells expressing G1 APOL1 (clone G1 DC3.25); inhibition of thallium flux rate. The source says: Acute APOL1 Thallium Assay with Inducible Stable Clones of HEK 293 Cells
Apolipoprotein L1 (APOL1) proteins form potassium-permeable cation pores in the plasma membrane. APOL1 risk variants (G1 and G2) induce greater potassium flux than G0 in HEK293 cells. This assay exploits the permeability of thallium (T1+) through ligand-gated potassium channels. The dye produces a bright fluorescent signal upon binding to T1+ conducted through potassium channels. The intensity of the T1+ signal is proportional to the number of potassium channels in the open state. Therefore, it provides a functional indication of the potassium channel activities. During the initial dye-loading step, the T1+ indicator dye as an acetoxymethyl (AM) ester enters the cells through passive diffusion. Cytoplasm esterases cleave the AM ester and relieve its active thallium-sensitive form. The cells are then stimulated with T1+. The increase of fluorescence in the assay represents the influx of T1+ into the cell specifically through the potassium channel (i.e. through APOL1 pores), providing a functional measurement of potassium channel/pore activity. The Thallium assay is conducted with cells expressing G1 APOL1.
APOL1 Cell Line (HEK T-Rex Stable Inducible Cell Line) • HEK T-Rex System • Tetracycline (Tet) inducible mammalian expression system. • Stably express the Tet repressor to regulate transcription. • Expression under the full-length CMV promoter. • APOL1 stable inducible cell line Clone used: G1 DC3.25
Tissue Culture Media • Cell Culture Medium • DMEM +10% FBS +P/S +5 μg/mL blasticidin+1 μg/mL puromycin. • 500 mL DMEM +55 mL FBS +5 mL P/S +280 μL blasticidin S HCl (10 mg/mL)+56 μL puromycin (10 mg/mL). • Cell Assay Medium • DMEM with 2% FBS+pen strep.
Instruments and Equipment • Nuaire cell culture hood, Cat. No. 540-600 • 37° C./5% CO2 incubator link to robotic arm, Liconic: STX110 • Molecular Devices FLIPR^Tetra High throughput cellular screening system, Cat. No. FT0324, Molecular Devices • ThermoFisher MultiDrop 384, Cat. No. 5840300 • Biotek Microfill, Cat. No. ASF1000A-4145 • BioRad TC10 cell counter, Cat. No. 145-0010 Assay Procedures
Cells Scaled Up from Frozen Vials • APOL1 G1 3.25 (HEK293 T-Rex) frozen vials: 5 million cells per vial • Step 1, Day 1: Defrost frozen vial into T-225. • Step 2, Day 5: (when 85% confluent): Split one T-225 at 3×10^6 cells per flask. • Step 3, Day 8: Splits cells to set up for the assay plates as described below.
T-Rex APOL1 HEK cells are split twice per week to keep the confluence state below 85% of the culture flask surface area. Cells can be kept until passage 25. • Cell Culture Medium • DMEM high glucose +10% FBS, +P/S, +5 μg/mL blasticidin, +1 μg/mL puromycin. • 500 mL DMEM, +55 mL FBS, +5 mL P/S, +280 μL blasicidin 10 mg/mL, +56 μL Puromycin 10 mg/mL. • Assay Media • Opti-MEM reduced serum medium from Invitrogen.
Preparation of Cell Assay Plates • Culture medium is removed from the x cm^2 T-flask by aspiration. • The cell monolayer is rinsed with PBS 1× at room temperature. PBS is removed by aspiration. • Cells are trypsinized using Trypsin. • The flasks are incubated at room temperature for 2-3 minutes. • Complete DMEM medium is then added. Cell suspension is then transferred to a 50 mL Falcon polypropylene tube. • Cells are then counted using a Biorad TC10 cell counter and the required amount of cells are centrifuged at 1200 RPM for 5 minutes. Required amount is 1.3×10^6 cells/mL APOL1 T-Rex HEK cells. • The pellet is suspended in the assay medium. • Using the MultiDrop, add 20 μL to each well (corresponds to 26000 cells total per well) of a 384-well black, transparent, flat bottom Poly-D coated plate. • Tetracycline as prepared in the following section is added to the cells before plating to induce APOL1 expression. • Plates are left at room temperature for 20 to 30 minutes before incubation at 37° C. and 5% CO2. […]
For the compound `O=C(CCc1c(-c2ccc(F)cc2)[nH]c2ccccc12)N[C@H]1C(=O)NC[C@H]1O` [Compound 133, 3-[2-(4-fluorophenyl)-1H-indol-3-yl]-N-[(3R,4R)-4-hydroxy-2-oxo-pyrrolidin-3-yl]propanamide], the IC50 (usually the concentration that gives 50% inhibition) was in the range of 250 to 1000 nM. Regarding `CC(C)(O)c1cccc2c(CCC(=O)N[C@@H]3C(=O)NC[C@H]3O)c(-c3ccccc3)[nH]c12` [Compound 66], the IC50 is 250 to 1000 nM. The figure for `Cc1cc(F)cc2c(CCC(=O)N[C@H]3CCNC3=O)c(-c3ccc(F)cc3)[nH]c12` [Compound 38] is less than 250 nM. `O=C(CCc1c(-c2ccccc2)[nH]c2c(Cl)cc(F)cc12)N[C@@H]1C(=O)NC[C@H]1O` [Compound 35] returned an IC50 of less than 250 nM. The figure for `O=C(CCc1c(-c2ccc(F)cc2)[nH]c2c(Cl)cc(F)cc12)N[C@H]1CCNC1=O` [Compound 34] is less than 250 nM. Take `O=C(CCc1c(-c2ccc(Cl)cc2)[nH]c2c(Cl)cccc12)N[C@@H]1C(=O)NC[C@H]1O` [Compound 113, 3-[7-chloro-2-(4-chlorophenyl)-1H-indol-3-yl]-N-[(3S,4R)-4-hydroxy-2-oxo-pyrrolidin-3-yl]propanamide]: the IC50 is less than 250 nM. The figure for `O=C(CCc1c(-c2ccc(F)cc2)[nH]c2cc(O)ccc12)N[C@@H]1C(=O)NC[C@H]1O` (stereo in doubt) [Compound 110, 3-[2-(4-fluorophenyl)-6-hydroxy-1H-indol-3-yl]-N-[(3S,4R)-4-hydroxy-2-oxo-pyrrolidin-3-yl]propanamide] is greater than 1000 nM; for `O=C(CCc1c(-c2ccc(F)cc2)[nH]c2cc(F)c(F)cc12)N[C@@H]1C(=O)NC[C@H]1O` [Compound 81] it is less than 250 nM.

As for `COc1cc(F)cc2c(CCC(=O)N[C@H]3CCNC3=O)c(-c3ccc(F)cc3)[nH]c12` [Compound 41], the IC50 was in the range of 250 to 1000 nM. As to `COc1cccc2c(CCC(=O)N[C@H]3CCNC3=O)c(-c3ccc(F)cc3)[nH]c12` [Compound 77], the half-maximal inhibitory concentration (IC50) is greater than 1000 nM. `C[C@@H](Cc1c(-c2ccc(F)cc2)[nH]c2c(F)cc(F)cc12)C(=O)N[C@@H]1C(=O)NC[C@H]1O` [Compound 91, (2S)-3-[5,7-difluoro-2-(4-fluorophenyl)-1H-indol-3-yl]-N-[(3S,4R)-4-hydroxy-2-oxo-pyrrolidin-3-yl]-2-methyl-propanamide] displayed an IC50 of 250 to 1000 nM. `O=C(CCc1c(-c2ccc(F)cc2)[nH]c2ccccc12)N[C@H]1C(=O)NC[C@@H]1O` [Compound 134, 3-[2-(4-fluorophenyl)-1H-indol-3-yl]-N-[(3R,4S)-4-hydroxy-2-oxo-pyrrolidin-3-yl]propanamide] registered an IC50 greater than 1000 nM. The compound `O=C(CCc1c(-c2ccccc2)[nH]c2c(C3CCOC3)cccc12)N[C@@H]1C(=O)NC[C@H]1O` (stereo partly shown) [Compound 65] displayed an IC50 of 250 to 1000 nM. The compound `O=C(CCc1c(-c2ccc(F)cc2)[nH]c2ccc(Cl)cc12)N[C@@H]1C(=O)NC[C@H]1O` [Compound 45, 3-[5-chloro-2-(4-fluorophenyl)-1H-indol-3-yl]-N-[(3S,4R)-4-hydroxy-2-oxo-pyrrolidin-3-yl]propanamide] registered an IC50 of less than 250 nM. `O=C(CCc1c(-c2ccccc2)[nH]c2c(C3=CCOC3)cccc12)N[C@@H]1C(=O)NC[C@H]1O` [Compound 64] yielded an IC50 greater than 1000 nM. Compound `O=C(CCc1c(-c2ccc(F)cc2)[nH]c2c(F)c(F)c(F)cc12)N[C@@H]1C(=O)NC[C@H]1O` [Compound 79] registered an IC50 of less than 250 nM.

The compound `Cc1ccc(-c2[nH]c3c(F)cc(F)cc3c2CCC(=O)N[C@@H]2CCNC2=O)cc1` [Compound 24] gave an IC50 of less than 250 nM. `Cc1cc(F)ccc1-c1[nH]c2ccccc2c1CCC(=O)N[C@@H]1C(=O)NC[C@H]1O` [Compound 119] showed an IC50 of 250 to 1000 nM.

Compound `COc1ccc2[nH]c(-c3ccc(F)cc3)c(CCC(=O)N[C@H]3CCNC3=O)c2c1` [Compound 56, 3-[2-(4-fluorophenyl)-5-methoxy-1H-indol-3-yl]-N-[(3S)-2-oxopyrrolidin-3-yl]propanamide] came in with an IC50 greater than 1000 nM.

Regarding `Cc1c(F)ccc2c(CCC(=O)N[C@@H]3C(=O)NC[C@H]3O)c(-c3ccc(F)cc3)[nH]c12` [Compound 83], the IC50 was less than 250 nM.

Compound `O=C(CCc1c(-c2ccc(F)cc2)[nH]c2c(F)c(F)ccc12)N[C@H]1CCNC1=O` [Compound 57] yielded an IC50 of 250 to 1000 nM. For `Cc1cccc2c(CCC(=O)N[C@@H]3C(=O)NC[C@H]3O)c(-c3ccc(F)cc3)[nH]c12` [Compound 71], the IC50 was less than 250 nM. In the case of `O=C(CCc1c(-c2ccccc2)[nH]c2c(C3CC3)cccc12)N[C@@H]1C(=O)NC[C@H]1O` [Compound 63], the IC50 was less than 250 nM. The figure for `O=C(CCc1c(-c2ccccc2)[nH]c2c(Cl)cccc12)N[C@@H]1C(=O)NC[C@H]1O` [Compound 74] is less than 250 nM; for `O=C(CCc1c(-c2ccc(F)cc2)[nH]c2c(F)cc(F)cc12)N[C@H]1C(=O)NC[C@@H]1O` [Compound 12] it is 250 to 1000 nM. As for `Cc1ccc(-c2[nH]c3c(F)cc(F)cc3c2CCC(=O)N[C@@H]2C(=O)NC[C@H]2O)cc1` [Compound 22], the IC50 is less than 250 nM. The figure for `Cc1cccc2c(CCC(=O)N[C@@H]3C(=O)NC[C@H]3O)c(-c3ccccc3)[nH]c12` [Compound 69] is less than 250 nM. `CC(=O)O[C@@H]1CNC(=O)[C@H]1NC(=O)CCc1c(-c2ccc(F)cc2)[nH]c2c(F)cc(F)cc12` [Compound 4, [(3R,4S)-4-[3-[5,7-difluoro-2-(4-fluorophenyl)-1H-indol-3-yl]propanoylamino]-5-oxo-pyrrolidin-3-yl]acetate] came in with an IC50 greater than 1000 nM.
